How the values were obtained:
[1] = test system: ADHD patients with insomnia disorders; test: sleep induction by melatonin in ADHD patients with insomnia disorders first treated with methyl phenidate; assay type: in vivo, human; conditions: pure melatonin 2.5 mg
[2] = test system: patients with major depressive disorder; conditions: cited from earlier work
[3] = test system: patients who had been previously treated with methyl phenidate; conditions: melatonin 3 mg; cited from earlier work
[4] = test system: children with delayed sleep phase syndrome; conditions: 2.5 to 7.5 mg PO once daily before expected bedtime; cited from earlier work
[5] = test system: ADHD; conditions: in vivo; cited from earlier work
[6] = test system: dopamine levels; conditions: normal therapeutic doses; healthy, adult men; cited from earlier work
[7] = test system: ADHD patients; conditions: versus 54% of ADHD cases with concomitant insomnia; cited from earlier work

SMILES: COc1ccc2[nH]cc(CCNC(C)=O)c2c1 [melatonin, N-acetyl-5-methoxytryptamine]
- activity as a sleep-inducing agent [1]: active as a sleep-inducing agent
- sleep quality scores ([2]; concomitant slow-release melatonin at 9 pm versus fluoxetine alone, 4 weeks): significantly improved sleep quality scores
- need for additional sleep medications ([2]; concomitant slow-release melatonin with fluoxetine): avoided the need for additional sleep medications
- time for insomnia [3]: significant reduction in the time for insomnia
- average onset of sleep after melatonin administration [4]: ≤ 1 h

SMILES: Clc1cccc(Cl)c1N=C1NCCN1 [clonidine]
- efficacy in treating ADHD [5]: effective in treating ADHD

SMILES: COC(=O)C(c1ccccc1)C1CCCCN1 (centres unmarked) [methylphenidate]
- dopamine levels (PET) [6]: increased their dopamine levels
- problems relating to insomnia in treated ADHD patients [7]: 64%

Reference: US20060167050A1 (POOGER PROPERTIES LIMITED, priority 2002, published 2006)
